Where “and” joins values, the source holds several entries; their conditions need not be identical. Equal values may be shown once.
Key:
[1] = UV/vis absorption spectra before and after illumination; format: physicochemical; details: 25 μM in HBSS buffer containing 1% DMSO; for λmax (nm) PSS cis: n−π* transition, approximated from PSS cis composition; for λmax (nm) trans: π–π* transition of trans isomer
[2] = Photostationary state composition by LC-MS at isosbestic point; details: for PSS cis (% cis) / PSS trans (% trans): DMSO 10 mM, LC-MS at isosbestic point; for PSS cis (% cis): after 360 ± 20 nm (12d: 520 ± 12 nm); for PSS trans (% trans): after 434 ± 9 nm from PSS cis
[3] = target: T1, human β2-AR (Homo sapiens, UniProt P07550, E27Q/G16R); test: [3H]DHA competition radioligand binding on HEK293T membranes
T1 construct: Human β2AR (GenBank: NP_000015.1) in pcDNA3.1+ expression plasmid; expressed in transfected cells; host or cells: HEK293T cells, transient transfection with PEI; membranes prepared
T1 sequence (P07550 whole entry G16R/E27Q): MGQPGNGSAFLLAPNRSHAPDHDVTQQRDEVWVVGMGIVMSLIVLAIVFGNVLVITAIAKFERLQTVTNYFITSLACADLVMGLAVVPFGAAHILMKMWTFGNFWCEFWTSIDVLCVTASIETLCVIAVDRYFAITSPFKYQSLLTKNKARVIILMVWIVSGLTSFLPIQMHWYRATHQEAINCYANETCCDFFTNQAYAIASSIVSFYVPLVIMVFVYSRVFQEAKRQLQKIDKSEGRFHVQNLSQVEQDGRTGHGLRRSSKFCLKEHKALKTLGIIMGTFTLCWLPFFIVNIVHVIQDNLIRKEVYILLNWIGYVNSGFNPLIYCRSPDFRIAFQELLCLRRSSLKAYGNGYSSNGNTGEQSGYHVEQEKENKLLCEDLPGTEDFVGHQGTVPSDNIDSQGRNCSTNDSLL

[4] = target: β2-AR (Homo sapiens, UniProt P07550); test: FRET-based EPAC cAMP assay, ligand stimulation (agonist mode); format: cell-based
Chain of β2-AR (P07550 whole entry): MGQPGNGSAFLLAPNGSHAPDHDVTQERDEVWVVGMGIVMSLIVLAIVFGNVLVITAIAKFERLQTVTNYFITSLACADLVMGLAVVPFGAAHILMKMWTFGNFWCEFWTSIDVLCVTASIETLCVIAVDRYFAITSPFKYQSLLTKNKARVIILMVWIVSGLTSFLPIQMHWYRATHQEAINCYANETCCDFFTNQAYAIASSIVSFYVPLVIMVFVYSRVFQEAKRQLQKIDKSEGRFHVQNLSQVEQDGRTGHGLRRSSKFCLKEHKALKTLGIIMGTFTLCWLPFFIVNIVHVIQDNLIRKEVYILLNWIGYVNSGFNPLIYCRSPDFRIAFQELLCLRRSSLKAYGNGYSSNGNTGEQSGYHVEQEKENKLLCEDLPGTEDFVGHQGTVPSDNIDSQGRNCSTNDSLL

[5] = Photostationary state composition by 1H NMR; format: physicochemical
Description: However, it has been computationally studied by Konrad et al. who calculated the n−π* band to be 444.5 nm for the cis isomer of the parent compound in the gas phase. […] The difference between calculated and experimental value could conceivably be the result of the buffer solvent not having been included in the calculations and/or the suboptimal trans to cis conversion at PSS cis (PSS cis = 66.3%). […] The PSS cis curve is slightly […], potentially enabling trans–cis isomerization at longer wavelengths. […] However, not unexpectedly given the low absorption at 560 nm, the illumination time required is much longer (hours versus 20 min with 360 nm illumination). Such longer illumination times would only be acceptable if the pharmacological differences between the isomers were much more pronounced, not requiring full conversions to PSS cis . […] The PSS cis and PSS trans values by LC–MS analysis (Figures B and S5) at the isosbestic point (376 nm) are 66.3% and 72.5%, respectively. These are similar to the 62.4% and 78.7% values obtained from ^1H NMR analysis, in which the well-resolved signal of the benzylic CH group allowed quantification of the PSS values (Figures C and S7).

[6] = Reversible isomerization cycles under alternating illumination (photobleaching resistance); details: 25 μM in HBSS buffer containing 1% DMSO; 365 ± 11 nm / 440 ± 25 nm

Row | λmax (nm) PSS cis [1] [nm] | λmax (nm) trans [1] [nm] | PSS cis (% cis) [2] | PSS trans (% trans) [2] | PSS cis value from 1H NMR analysis ([5]; 10 mM in DMSO-d6, 360 ± 20 nm) [%] | PSS trans value from 1H NMR analysis ([5]; 10 mM in DMSO-d6, 434 ± 9 nm after PSS cis) [%] | PSS cis value with 560 nm light ([2]; 560 nm illumination, LC-MS) [%] | resistance to photobleaching, dynamic isomerization cycles [6] | SMILES | Ki [3] [nM] | pEC50 trans [4] | α trans, intrinsic activity Emax (ligand)/Emax (isoprenaline) [4]
1 | 441 | 293 | 38.5 ± 0.5% | 94.1 ± 0.3% |  |  |  |  | CC(C)(C)NCC(O)c1cc(Cl)c(/N=N/c2c(Cl)cccc2Cl)c(Cl)c1 (stereo not drawn) [Compound 12d, (E)-2-(tert-Butylamino)-1-(3,5-dichloro-4-((2,6-dichlorophenyl)-diazenyl)-phenyl)-ethan-1-ol] |  |  | 
2 | 417 | 306 | 66.3% and 66.3 ± 0.9% | 72.5% and 72.5 ± 0.1% | 62.4 | 78.7 | 74.9 | at least 10 cycles | CC(C)(C)NCC(O)c1cc(Cl)c(/N=N/c2ccccc2)c(Cl)c1 (stereo not drawn) [Compound 12b, (E)-2-(tert-Butylamino)-1-(3,5-dichloro-4-(phenyldiazenyl)phenyl)-ethan-1-ol] |  |  | 

The remaining lines, values behind:

Row | SMILES | λmax (nm) PSS cis [1] [nm] | λmax (nm) trans [1] [nm] | PSS cis (% cis) [2] | PSS trans (% trans) [2] | PSS cis value from 1H NMR analysis ([5]; 10 mM in DMSO-d6, 360 ± 20 nm) [%] | PSS trans value from 1H NMR analysis ([5]; 10 mM in DMSO-d6, 434 ± 9 nm after PSS cis) [%] | PSS cis value with 560 nm light ([2]; 560 nm illumination, LC-MS) [%] | resistance to photobleaching, dynamic isomerization cycles [6] | Ki [3] [nM] | pEC50 trans [4] | α trans, intrinsic activity Emax (ligand)/Emax (isoprenaline) [4]
3 | CC(C)(C)NCC(O)c1cc(Cl)c(/N=N/c2ccccc2)c(C#N)c1 (stereo not drawn) [Compound 12e, (E)-5-(2-(tert-Butylamino)-1-hydroxyethyl)-3-chloro-2-(phenyldiazenyl)-benzonitrile] | 426 | 331 | 88.7 ± 0.8% | 82.0 ± 0.4% |  |  |  |  |  |  | 
4 | CC(C)(C)NCC(O)c1ccc(/N=N/c2ccccc2)c(Cl)c1 (stereo not drawn) [Compound 12c, (E)-2-(tert-Butylamino)-1-(3-chloro-4-(phenyldiazenyl)phenyl)-ethan-1-ol] | 428 | 328 | 97.6 ± 0.1% | 65.5 ± 0.2% |  |  |  |  |  |  | 
5 | CC(C)(C)NCC(O)c1ccc(/N=N/c2ccccc2)cc1 (stereo not drawn) [Compound 12a, (E)-2-(tert-Butylamino)-1-(4-(phenyldiazenyl)-phenyl)-ethan-1-ol] | 425 | 323 | 94.6 ± 0.5% | 71.8 ± 0.2% |  |  |  |  |  |  | 
6 | CC(C)(C)NCC(O)c1cc(Cl)c(N)c(C#N)c1 (stereo not drawn) [Compound 18, 2-Amino-5-(2-(tert-butylamino)-1-hydroxyethyl)-3-chlorobenzonitrile] |  |  |  |  |  |  |  |  | 20 | 9.0 ± 0.0 | 0.8 ± 0.0

Reference: article PMC12225454, “Photo-clenbuterol: Optical Control of β2‑Adrenergic Receptor Signaling by Photoswitchable Ligand Efficacy” (Journal of Medicinal Chemistry, 2025)
